Data: patent US4552765A, “Aletheine derivatives” (Santen Pharmaceutical Co., Ltd., priority 1982, dated 1985)

System: CCl4-induced liver damage
Test: effect on CCl4-induced liver damage in rats (serum transaminase s-GOT and s-GPT)
Assay type: in vivo, Male wistar rats
Conditions: for serum transaminase s-GPT / serum transaminase s-GOT / s-GPT (inhibitory %) / s-GOT (inhibitory %): 300 mg/Kg orally, 60 min before CCl4 0.25 ml/Kg i.p., 24 h after CCl4; for serum transaminase s-GPT / serum transaminase s-GOT: mean ± standard deviation; for effect on liver damage: result in words
Description: Generally, the effect of a certain compound on liver damage is examined by administering it to experimental animals before a liver damage inducer such as carbon tetrachloride, thioacetamide, bromobenzene, paracetamol, D-galactosamine, etc. Carbon tetrachloride (CCl4)-induced liver damage is commonly used as the model. The mechanism to induce liver damage is presumed as follows (Biochemical Pharmacology 21, 49 (1972), ibid., 25, 2163 (1976)). In this invention, the effect of the compounds were examined against CCl4 -induced liver damage using serum transaminase activities (s-GOT and s-GPT) as a parameter. Male wistar rats (6 animals per group), weighing about 170-200 g, fasted for 17 hours, were used in the experiments. Test compounds were given orally at a dose of 300 mg/Kg, and 60 minutes later CCl4 was administered intraperitoneally at a dose of 0.25 ml/Kg (5 ml/Kg as a 5%(v/v)solution in olive oil). As the control, olive oil only was given intraperitoneally at a dose of 5 ml/Kg. All animals were killed 24 hours after CCl4 administration and their s-GOT and s-GPT activities were determined.

[1] = Table I, vs control 11460 ± 1490
[2] = Table II, vs control 6400 ± 2590
[3] = Table II, vs control 13950 ± 4030

SMILES | serum transaminase s-GPT (Table I, control 5100 ± 405) | serum transaminase s-GOT (Table I, control 11460 ± 1490) | s-GPT (inhibitory %) (Table I, vs control 5100 ± 405) | s-GOT (inhibitory %) [1] | serum transaminase s-GPT (Table II, control 6400 ± 2590) | serum transaminase s-GOT (Table II, control 13950 ± 4030) | s-GPT (inhibitory %) [2] | s-GOT (inhibitory %) [3] | effect on liver damage
CC(=O)SCCNC(=O)CCNC(=O)OCc1ccccc1 [compound No. 1, N-(2-Acetylthioethyl)-3-(benzyloxycarbonylamino)propionamide] | 2590 ± 731 Karmen unit/ml | 5250 ± 1330 Karmen unit/ml | 49% | 54% |  |  |  |  | 
CCC(=O)SCCNC(=O)CCNC(=O)OCc1ccccc1 [compound No. 2, 3-(Benzyloxycarbonylamino)-N-(2-propionylthioethyl)-propionamide] | 1720 ± 613 Karmen unit/ml | 3550 ± 1150 Karmen unit/ml | 66% | 69% |  |  |  |  | 
O=C(CCNC(=O)c1ccccc1)NCCSC(=O)c1ccccc1 [compound No. 3, 3-Benzoylamino-N-(2-benzoylthioethyl)propionamide] | 2440 ± 960 Karmen unit/ml | 6150 ± 2990 Karmen unit/ml | 52% | 46% |  |  |  |  | 
Cl.NCCC(=O)NCCS [compound No. 4, 3-amino-N-(2-mercaptoethyl)propionamide hydrochloride] |  |  |  |  | 1990 ± 1010 Karmen unit/ml | 4690 ± 2490 Karmen unit/ml | 69% | 67% | 
O=C(CCNC(=O)OCc1ccccc1)NCCS [compound No. 5, 3-(benzyloxycarbonylamino)-N-(2-mercaptoethyl)propionamide] |  |  |  |  | 1900 ± 1640 Karmen unit/ml | 4450 ± 4430 Karmen unit/ml | 71% | 69% | superior effect on liver-damage
CC(=O)NCCC(=O)NCCSC(C)=O [compound No. 6, 3acetylamino-N--(2acetylthioethyl)propionamide] |  |  |  |  | 1730 ± 800 Karmen unit/ml | 3370 ± 1360 Karmen unit/ml | 73% | 76% | superior effect on liver-damage
NCCC(=O)NCCS [β-aletheine, N-β-Alanyl-2-mercaptoethylamine] |  |  |  |  |  |  |  |  | excellent suppressive effect on liver damage
